SMILES strings stand for the structures.

The target in the experiment is PIK3CA (human) (UniProt P42336). Nature of the experiment: Assessment of PIK3CA Kinase Activity.
Chain of PIK3CA (human) (P42336 whole entry, looked up): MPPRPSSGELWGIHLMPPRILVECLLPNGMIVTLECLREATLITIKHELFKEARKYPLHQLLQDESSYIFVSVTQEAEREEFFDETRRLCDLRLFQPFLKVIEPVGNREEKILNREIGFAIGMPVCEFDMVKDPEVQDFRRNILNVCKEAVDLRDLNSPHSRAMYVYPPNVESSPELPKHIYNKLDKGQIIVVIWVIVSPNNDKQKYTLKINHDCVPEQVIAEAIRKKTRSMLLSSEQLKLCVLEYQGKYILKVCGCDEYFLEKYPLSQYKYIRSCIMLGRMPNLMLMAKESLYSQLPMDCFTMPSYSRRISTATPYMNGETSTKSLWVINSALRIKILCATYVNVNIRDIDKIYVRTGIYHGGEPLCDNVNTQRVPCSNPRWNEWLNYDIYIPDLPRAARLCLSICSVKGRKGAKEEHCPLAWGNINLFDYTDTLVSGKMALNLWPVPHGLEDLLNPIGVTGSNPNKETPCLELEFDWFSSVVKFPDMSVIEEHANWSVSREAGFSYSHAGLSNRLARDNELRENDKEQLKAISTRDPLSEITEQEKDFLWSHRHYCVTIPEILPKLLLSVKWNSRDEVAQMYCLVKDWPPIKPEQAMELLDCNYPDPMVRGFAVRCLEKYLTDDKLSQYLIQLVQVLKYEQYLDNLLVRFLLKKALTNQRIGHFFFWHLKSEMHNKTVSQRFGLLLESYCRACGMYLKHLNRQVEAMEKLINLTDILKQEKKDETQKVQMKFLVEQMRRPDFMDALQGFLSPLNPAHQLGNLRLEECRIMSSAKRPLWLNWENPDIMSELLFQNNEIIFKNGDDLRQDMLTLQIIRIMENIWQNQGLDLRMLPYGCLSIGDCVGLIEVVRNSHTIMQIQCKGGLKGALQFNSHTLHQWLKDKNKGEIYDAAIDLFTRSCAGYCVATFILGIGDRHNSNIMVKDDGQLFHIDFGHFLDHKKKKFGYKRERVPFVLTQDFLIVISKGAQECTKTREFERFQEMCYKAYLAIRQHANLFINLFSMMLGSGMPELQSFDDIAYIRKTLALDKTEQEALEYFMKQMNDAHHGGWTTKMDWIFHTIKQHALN

`CS(=O)(=O)N1CCC(Nc2nn3c(-c4cnc(N)c(C(F)(F)F)c4)cnc3s2)CC1` displayed an IC50 of 12 nM. With `C[C@]1(O)CC[C@@H](Nc2nn3c(-c4cnc(N)c(C(F)(F)F)c4)cnc3s2)CC1` the figure was 22 nM; with `CS(=O)(=O)N1CCC(Nc2nn3c(-c4cncc(C(F)(F)F)c4)cnc3s2)CC1`, 50 to 1000 nM. With `CC(=O)N1CCC(Nc2nn3c(-c4cnc(N)c(C(F)(F)F)c4)cnc3s2)CC1` the figure was 18 nM. With `CCNC(=O)N1CCC(CNc2nn3c(-c4cnc(N)c(C(F)(F)F)c4)cnc3s2)CC1` the figure was 1 to 50 nM. With `Nc1ncc(-c2c(Cl)nc3sc(N[C@H]4CC[C@H](O)CC4)nn23)cc1C(F)(F)F`, the IC50 was 104 nM. With `CCOC(=O)C1CCCN(c2nn3c(-c4cnc(N)c(C(F)(F)F)c4)cnc3s2)C1` (stereo not drawn) the figure was 50 to 1000 nM; with `CN[C@H]1CC[C@H](N(C)c2nn3c(-c4cnc(N)c(C(F)(F)F)c4)cnc3s2)CC1`, 50 to 1000 nM. `NCCCNc1nn2c(-c3cnc(N)c(C(F)(F)F)c3)cnc2s1` showed a 50% inhibitory concentration (IC50) of 50 to 1000 nM. The result for `CC(C)(C)OC(=O)N1CCN(c2nn3c(-c4cnc(N)c(C(F)(F)F)c4)cnc3s2)CC1` reads 50 to 1000 nM. The result for `CCNC(=O)N[C@H]1CC[C@@H](Nc2nn3c(-c4cnc(N)c(C(F)(F)F)c4)c(Cl)nc3s2)CC1` reads 50 to 1000 nM; that for `Nc1ncc(-c2cnc3sc(NC4CCC5(CC4)OCCO5)nn23)cc1C(F)(F)F`, 34 nM. Compound `CC(C)(C)OC(=O)NCCCNc1nn2c(-c3cnc(N)c(C(F)(F)F)c3)cnc2s1` gave an IC50 of 50 to 1000 nM.

In turn, `CS(=O)(=O)NC1CCCN(c2nn3c(-c4cnc(N)c(C(F)(F)F)c4)cnc3s2)C1` (stereo not drawn) gave a half-inhibitory concentration (IC50) of 50 to 1000 nM.

As to `Nc1ncc(-c2c(Cl)nc3sc(N[C@H]4CC[C@H](NS(=O)(=O)c5ccc(F)cc5F)CC4)nn23)cc1C(F)(F)F`, the IC50 was found to be 1700 nM. The result for `CN(c1nn2c(-c3cnc(N)c(C(F)(F)F)c3)cnc2s1)[C@H]1CC[C@H](O)CC1` reads 50 to 1000 nM. The result for `Nc1ncc(-c2c(Cl)nc3sc(N[C@H]4CC[C@@H](N)CC4)nn23)cc1C(F)(F)F` reads 50 to 1000 nM; that for `CC(=O)N[C@H]1CC[C@H](Nc2nn3c(-c4cnc(N)c(C(F)(F)F)c4)cnc3s2)CC1`, 50 to 1000 nM; that for `Cc1nc2sc(NC3CCN(S(C)(=O)=O)CC3)nn2c1-c1cnc(N)c(C(F)(F)F)c1`, 1 to 50 nM.

`Nc1ncc(-c2cnc3sc(N4CCCC(O)C4)nn23)cc1C(F)(F)F` (stereo not drawn) gave an IC50 of 50 to 1000 nM. `CS(=O)(=O)NCCNc1nn2c(-c3cnc(N)c(C(F)(F)F)c3)cnc2s1`: the IC50 is 269 nM. Regarding `Nc1ncc(-c2cnc3sc(N4CCCNC4=O)nn23)cc1C(F)(F)F`, the IC50 is 170 nM. In turn, `CC(C)(C)OC(=O)N1CC(S(=O)(=O)N2CCC(Nc3nn4c(-c5cnc(N)c(C(F)(F)F)c5)cnc4s3)CC2)C1` yielded an IC50 of 131 nM. Take `CN1CCC(CNc2nn3c(-c4cnc(N)c(C(F)(F)F)c4)cnc3s2)CC1`: the IC50 came to 301 nM. With `CC(=O)O[C@H]1CC[C@H](Nc2nn3c(-c4cnc(N)c(C(F)(F)F)c4)c(Cl)nc3s2)CC1`, the IC50 lay in the range of 50 to 1000 nM.

Compound `CC(C)(C)OC(=O)NCCNc1nn2c(-c3cnc(N)c(C(F)(F)F)c3)cnc2s1` had an IC50 of 50 to 1000 nM. The result for `CC(=O)NC1CCCN(c2nn3c(-c4cnc(N)c(C(F)(F)F)c4)cnc3s2)C1` (stereo not drawn) reads 274 nM; that for `COC1CCN(c2nn3c(-c4cnc(N)c(C(F)(F)F)c4)cnc3s2)CC1`, 50 to 1000 nM.

As a reminder, the IC50 is the concentration at which inhibition is half-maximal.
